Results as given in patent US11076594B2, “Pyrazolone compound or salt thereof, preparation method therefor, herbicide composition and use thereof” (QINGDAO KINGAGROOT CHEMICAL COMPOUNDS CO., LTD., priority 2015, dated 2021).

Assays:
Type in all cases: in vivo
Conditions in all cases: post-emergence spray at 4-5 leaf stage, 250 g/ha active ingredient with 450 kg/ha water, rated after 3 weeks in greenhouse
Indian mallow = assay: weed control effect in post-emergence stage (Table 1); design: key: Level 10: completely dead; Level 9: above 95% growth control rate; Level 8: above 90% growth control rate; Level 7: above 80% growth control rate; Level 6: above 70% growth control rate; Level 5: above 60% growth control rate; Level 4: above 50% growth control rate; Level 3: above 20% growth control rate; Level 2: 5%-20% growth control rate; Level 1: below 5% growth control rate
Summary of the method: (§1)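 Weed and crop seeds sown in soil-filled pots under 0.5-2 cm soil, greenhouse-grown, then sprayed at 4-5 leaf stage (2-3 weeks after sowing) with compound in acetone/Tween 80/water. Fresh weight growth control rate assessed after 3 weeks in greenhouse.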

bidens bipinnata = assay: as above; design: key: Level 10: completely dead; Level 9: above 95% growth control rate; Level 8: above 90% growth control rate; Level 7: above 80% growth control rate; Level 6: above 70% growth control rate; Level 5: above 60% growth control rate; Level 4: above 50% growth control rate; Level 3: above 20% growth control rate; Level 2: 5%-20% growth control rate; Level 1: below 5% growth control rate
Summary of the method: as §1

crab grass = assay: as above; design: key: Level 10: completely dead; Level 9: above 95% growth control rate; Level 8: above 90% growth control rate; Level 7: above 80% growth control rate; Level 6: above 70% growth control rate; Level 5: above 60% growth control rate; Level 4: above 50% growth control rate; Level 3: above 20% growth control rate; Level 2: 5%-20% growth control rate; Level 1: below 5% growth control rate
Summary of the method: as §1

echinochloa = assay: as above; design: key: Level 10: completely dead; Level 9: above 95% growth control rate; Level 8: above 90% growth control rate; Level 7: above 80% growth control rate; Level 6: above 70% growth control rate; Level 5: above 60% growth control rate; Level 4: above 50% growth control rate; Level 3: above 20% growth control rate; Level 2: 5%-20% growth control rate; Level 1: below 5% growth control rate
Summary of the method: as §1

foxtail = assay: as above; design: key: Level 10: completely dead; Level 9: above 95% growth control rate; Level 8: above 90% growth control rate; Level 7: above 80% growth control rate; Level 6: above 70% growth control rate; Level 5: above 60% growth control rate; Level 4: above 50% growth control rate; Level 3: above 20% growth control rate; Level 2: 5%-20% growth control rate; Level 1: below 5% growth control rate
Summary of the method: as §1

rorippa indica = assay: as above; design: key: Level 10: completely dead; Level 9: above 95% growth control rate; Level 8: above 90% growth control rate; Level 7: above 80% growth control rate; Level 6: above 70% growth control rate; Level 5: above 60% growth control rate; Level 4: above 50% growth control rate; Level 3: above 20% growth control rate; Level 2: 5%-20% growth control rate; Level 1: below 5% growth control rate
Summary of the method: as §1

corn = assay: post-emergence stage experiment, crop (Table 1)
Summary of the method: as §1

wheat = assay: post-emergence stage experiment, crop (Table 1)
Summary of the method: as §1

rice = assay: post-emergence stage experiment, crop (Table 1); design: key: Level 10: completely dead; Level 9: above 95% growth control rate; Level 8: above 90% growth control rate; Level 7: above 80% growth control rate; Level 6: above 70% growth control rate; Level 5: above 60% growth control rate; Level 4: above 50% growth control rate; Level 3: above 20% growth control rate; Level 2: 5%-20% growth control rate; Level 1: below 5% growth control rate
Summary of the method: as §1

| Structure (SMILES) | weed control effect, Indian mallow (level) (Indian mallow) | weed control effect, Bidens bipinnata (level) (bidens bipinnata) | weed control effect, Crab grass (level) (crab grass) | weed control effect, Echinochloa (level) (echinochloa) | weed control effect, Green foxtail (level) (foxtail) | weed control effect, Rorippa indica (level) (rorippa indica) | effect on crop, Corn (level) (corn) | effect on crop, Wheat (level) (wheat) | effect on crop, Rice (level) (rice) |
| --- | --- | --- | --- | --- | --- | --- | --- | --- | --- |
| CCOc1c(C(=O)Oc2c(C(=O)c3ccc(C(F)(F)F)c(-n4cccn4)c3Cl)c(C3CC3)nn2C)cnn1C [Compound 074] | 10 | 4 (Level 4: above 50% growth control rate) | 4 (Level 4: above 50% growth control rate) | 6 (Level 6: above 70% growth control rate) | 9 (Level 9: above 95% growth control rate) | 10 | 3 (Level 3: above 20% growth control rate) | 1 (Level 1: below 5% growth control rate) | 9 (Level 9: above 95% growth control rate) |
| CCn1ncc(C(=O)c2ccc(C(F)(F)F)c(-n3cc(C)cn3)c2Cl)c1OC(=O)c1cn(C)nc1C [Compound 137] | 10 | 10 | 7 (Level 7: above 80% growth control rate) | 10 | 10 | 8 (Level 8: above 90% growth control rate) | 5 (Level 5: above 60% growth control rate) | 3 (Level 3: above 20% growth control rate) | 8 (Level 8: above 90% growth control rate) |
| Cn1ncc(C(=O)c2ccc(C(F)(F)F)c(N3CCCCCC3=O)c2Cl)c1O [Compound 050] | 9 (Level 9: above 95% growth control rate) | 3 (Level 3: above 20% growth control rate) | 3 (Level 3: above 20% growth control rate) | 2 (Level 2: 5%-20% growth control rate) | 7 (Level 7: above 80% growth control rate) | 5 (Level 5: above 60% growth control rate) | 3 (Level 3: above 20% growth control rate) | 0 | 0 |
| CCOC(=O)Oc1c(C(=O)c2ccc(C(F)(F)F)c(N3CCCCCC3=O)c2Cl)c(C)nn1C [Compound 055] | 10 | 10 | 4 (Level 4: above 50% growth control rate) | 8 (Level 8: above 90% growth control rate) | 9 (Level 9: above 95% growth control rate) | 2 (Level 2: 5%-20% growth control rate) | 0 | 0 | 6 (Level 6: above 70% growth control rate) |
| Cc1nn(C)cc1C(=O)Oc1c(C(=O)c2ccc(C(F)(F)F)c(N3CCCCC3=O)c2Cl)c(C)nn1C [Compound 038] | 10 | 2 (Level 2: 5%-20% growth control rate) | 6 (Level 6: above 70% growth control rate) | 9 (Level 9: above 95% growth control rate) | 10 | 10 | 0 | 1 (Level 1: below 5% growth control rate) | 6 (Level 6: above 70% growth control rate) |
| CCc1nn(C)c(O)c1C(=O)c1ccc(C(F)(F)F)c(N2CCCCC2=O)c1Cl [Compound 110] | 9 (Level 9: above 95% growth control rate) | 5 (Level 5: above 60% growth control rate) | 2 (Level 2: 5%-20% growth control rate) | 9 (Level 9: above 95% growth control rate) | 10 | 10 | 0 | 2 (Level 2: 5%-20% growth control rate) | 10 |
| Cc1nn(C)c(OC(=O)c2cnn(C)c2)c1C(=O)c1ccc(C(F)(F)F)c(-n2cccn2)c1Cl [Compound 070] | 10 | 5 (Level 5: above 60% growth control rate) | 4 (Level 4: above 50% growth control rate) | 6 (Level 6: above 70% growth control rate) | 9 (Level 9: above 95% growth control rate) | 5 (Level 5: above 60% growth control rate) | 3 (Level 3: above 20% growth control rate) | 0 | 3 (Level 3: above 20% growth control rate) |
| CCc1nn(C)c(O)c1C(=O)c1ccc(C(F)(F)F)c(-n2cccn2)c1Cl [Compound 130] | 0 | 3 (Level 3: above 20% growth control rate) | 3 (Level 3: above 20% growth control rate) | 10 | 10 | 10 | 4 (Level 4: above 50% growth control rate) | 2 (Level 2: 5%-20% growth control rate) | 7 (Level 7: above 80% growth control rate) |
| CCn1ncc(C(=O)c2ccc(C(F)(F)F)c(N3CCCCC3=O)c2Cl)c1O [Compound 106] | 7 (Level 7: above 80% growth control rate) | 6 (Level 6: above 70% growth control rate) | 6 (Level 6: above 70% growth control rate) | 10 | 3 (Level 3: above 20% growth control rate) | 5 (Level 5: above 60% growth control rate) | 3 (Level 3: above 20% growth control rate) | 3 (Level 3: above 20% growth control rate) | 9 (Level 9: above 95% growth control rate) |
| CCc1nn(CC)c(O)c1C(=O)c1ccc(C(F)(F)F)c(N2CCCCCC2=O)c1Cl [Compound 122] | 5 (Level 5: above 60% growth control rate) | 5 (Level 5: above 60% growth control rate) | 3 (Level 3: above 20% growth control rate) | 9 (Level 9: above 95% growth control rate) | 10 | 0 | 0 | 1 (Level 1: below 5% growth control rate) | 5 (Level 5: above 60% growth control rate) |
| Cn1nc(C2CC2)c(C(=O)c2ccc(C(F)(F)F)c(-n3cccn3)c2Cl)c1O [Compound 073] | 10 | 2 (Level 2: 5%-20% growth control rate) | 5 (Level 5: above 60% growth control rate) | 5 (Level 5: above 60% growth control rate) | 10 | 7 (Level 7: above 80% growth control rate) | 3 (Level 3: above 20% growth control rate) | 1 (Level 1: below 5% growth control rate) | 8 (Level 8: above 90% growth control rate) |
